Test results taken from patent US20210239702A1, “METHODS FOR PREDICTING RESPONSIVENESS OF LUNG CANCER PATIENTS TO HER2-TARGETING THERAPIES” (MEMORIAL SLOAN KETTERING CANCER CENTER, priority 2018, published 2021).

Tests used:
HER2 mutant lung cancers = test system: HER2 mutant lung cancers
Description: (§1) Patients with stage 4 or recurrent HER2 mutant lung cancers were enrolled in the cohort, as illustrated in the basket trial scheme in FIG. 1. Other cohorts of this basket trial included HER2 amplified lung, bladder and other solid tumors, as illustrated by FIG. 1. HER2 mutations were identified through next generation sequencing (NGS) including exon 20 insYVMA, insGSP, insTGT, single base pair substitutions L755A, L755S, V777L, V659E, S310F or other likely activating mutations. Other inclusion criteria included age (≥18 years old), Karnofsky performance status (≥70%), measurable disease by Response Evaluation Criteria in Solid Tumors (RECIST) v1.1, and adequate left ventricular, bone marrow, and hepatic function.
Physical examination and safety assessments were performed every 3 weeks. Tumor assessments using contrast enhanced computed tomography of the chest, abdomen, and pelvis were performed at baseline, week 6, week 12, and every 12 weeks thereafter until disease progression was observed. Brain imaging was not routinely performed unless clinically indicated. Left ventricular ejection fraction measurements by echocardiography or multi-gated acquisition scan were performed at baseline then every 3 months. […] Secondary objectives included assessment of progression-free survival (PFS) and toxicity according to the National Cancer Institute Common Terminology Criteria for Adverse Events version 4.1 (NCI CTCAE v4.1). The molecular associations between HER2 mutations, HER2 amplification and HER2 protein expression were examined using different molecular diagnostic assays whenever archival tissue was available. NGS assessed for HER2 mutation and amplification, fluorescence in situ hybridization (FISH) assessed for HER2 amplification, and HER2 protein overexpression was assessed by immunohistochemistry (IHC) and quantitative mass spectrometry. FISH was performed using FDA approved probe sets (PathVysion, Abbott Molecular, Chicago, Ill. and HER2 IQFISH pharmDx, Agilent, Santa Clara, Calif.) and positive HER2 amplification was defined as HER2/CEP17 ratio ≥2.0. HER2 protein by IHC was assessed using the 4B5 Ventana antibody (Ventana Medical Systems, Oro Valley Ariz.). Quantitative HER2 protein by selected reaction monitoring mass spectrometry on fixed-formalin paraffin-embedded tissue was performed using methods previously validated in breast cancers, with ≥740 amol/ug as the cutoff for high HER2 expression (see Nuciforo P., et al., Mol. Oncol., 10:138-147 (2016)).
Target accrual was a minimum of 7 patients (stage 1) and maximum of 18 patients (stage 1 and 2) in each cohort. The primary endpoint was best confirmed overall response rate (ORR) per RECIST v1.1. The Simon's optimal two-stage design was employed with a multiple testing adjusted type I error rate for each cohort. For a targeted agent where higher response rates were expected, a true ORR of ≤10% was considered unacceptable (null hypothesis), whereas a true ORR of ≥40% merited further study (alternative hypothesis). In the first stage, 7 patients were accrued; if there were no responses observed at interim analysis of the 7 patients in a particular cohort, the cohort was closed. Otherwise, 11 additional patients were accrued for a total of 18 patients. […] The overall family-wise error rate at the study level was <10%. The exact 95% CI for ORR was calculated using the Clopper-Pearson method. PFS time was estimated by the Kaplan-Meier method. Follow-up time was calculated from the start of treatment to the most recent patient follow-up assessment.

[1] = test system: HER2-amplified salivary gland cancers; conditions: FLIM-FRET positive in 3/3
Description: as §1

For ado-trastuzumab emtansine, the “outcome of patients with active untreated brain metastases at enrollment” value (HER2 mutant lung cancers; 2 patients, first response assessment) was “both patients had progression of disease systemically and in the central nervous system”, the “patients with progression of disease as best response” value (HER2 mutant lung cancers; 3 of 18 patients) was 17% and the “responders among patients pretreated with prior systemic therapy” value (HER2 mutant lung cancers; 6 of 15 pretreated patients) was 40%. The “median PFS for the responders” value (HER2 mutant lung cancers; 95% CI 4 months to not reached) was 6 months, the “median PFS for all patients” value (HER2 mutant lung cancers; N=18, 95% CI 3 to 9 months) was 5 months and the “overall response rate (ORR, all partial and confirmed)” value (HER2 mutant lung cancers; RECIST v1.1, 3.6 mg/kg IV every 21 days, 18 patients, 95% CI 22-69%) was 44%. For the same substance, the “patients who achieved stable disease” value (HER2 mutant lung cancers; in vivo) was 39%, the “patients with confirmed radiologic partial response” value (HER2 mutant lung cancers; out of 18 patients with ERBB2-mutant lung cancers) was 8 and the “longest PFS observed / durable disease control” value (HER2 mutant lung cancers; patient with stable disease as best response, -27% tumor shrinkage) was no less than 11 months. For the same substance, the “median time to response from start of treatment” value (HER2 mutant lung cancers; range 1 to 4 months) was 2 months, the “median duration of response” value (HER2 mutant lung cancers; range 2 to 9 months) was 4 months and the “response among FLIM-FRET positive patients” value [1] was “all 3 patients responded”.
